The subject of assay [1] is fibrinolysis mediated by tPA (plasminogen activation by tPA). In words: Fibrinolytic assay: one-step spectrophotometric clot lysis in human plasma. The format is biochemical. Conditions: for IC50: concentration at which 50% of total fibrinolysis mediated by tPA is inhibited, human ACD plasma, clot triggered by TF, absorbance 340 nm, read-out: Anti-fibrinolytic (SERPIN) Activity IC50; for inhibition of fibrinolysis mediated by tPA (in words): different concentrations, FIGS. 2B-2D. As to the method:
Fibrinolytic activity in human plasma was determined by a one-step spectrophotometric method (Gidron et al. (1978) J. Clin. Pathol. 31(1):54-57) with minor modifications (see EXAMPLE 2). In this method, fibrin clot formation in anticoagulant citrate dextrose (ACD) plasma samples obtained from healthy volunteers is triggered by tissue factor (TF) and can be quantified by spectrometry as a significant increase in basal plasma absorbance at 340 nm.
As shown in FIGS. 2A-2D, in the absence of tPA, plasma absorbance remains permanently elevated.
Fibrinolytic activity in human plasmas in the presence of derivatives according to the disclosure was determined by a one-step spectrophotometric method.
Fibrin clot formation in the anticoagulant acid citrate dextrose (ACD)-treated plasma obtained from healthy volunteers is triggered by tissue factor (TF) (Thromborel S, Siemens Healthineers) and quantifies by spectrophotometry at 340 nm (using a Molecular Devices SpectraMax® M2e Multimode Microplate Reader). When recombinant human Tissue Plasminogen Activator (tPA, final concentration of 5.2 μg/ml) is simultaneously added, fibrinolysis of the clot can be determined.
Fresh blood was extracted from healthy volunteers. ACD, to reach a 10% concentration, was instantly added to the extracted blood, to prevent any unwanted coagulation. After that, blood was centrifuged for 15 min at 1,000 g. Plasma was clearly separated from red blood cells. 3 mL aliquots of aspirated plasma were immediately frozen at −20° C.
4 mL of ddH2O was added to a vial of Thromborel S and mixed thoroughly for 2 min. and left at 4° C. 500 μL TF aliquots were used for each experiment.
Representative derivatives of the present disclosure (Nos. 1, 5, and 7) were diluted in DMSO (those with Boc) or ddH2O (those with HCl) to a final concentration of 10 mM. A solution containing 1 M Tris HCl, pH 7.5 (Fisher BioReagent) (Buffer A), 0.110 g of CaCl2) in 10 mL of ddH2O (Buffer B), and tPA (Abcam, 1.3 mg/mL added into the diluted derivative solution, final concentration in serum was 5.2 μg/mL), and the derivative was prepared in a total volume of 75 μL and added to untreated, flat, clear Costar® 96-well plates in triplicate. Absorbance at 340 nm at 37° C. for 30 min was recorded every 15 sec. The plates were shaken every 3 sec in between readings. Controls for basal plasma absorbance, basal coagulation absorbance and basal fibrinolytic activity absorbance were performed in every assay.
FIG. 2A show the results a control experiment displaying the ability of TF to cause fibrin clot formation in the absence and presence of t-PA. TF was able to cause fibrin clot formation evaluated as a significant increase of the basal plasma absorbance at 340 nm.

For assay [2], the system named is Non-Small Lung Cancer Cells (NSLCs). In words: Cancer migration (wound healing) assay. The format is cell-based. Conditions: for concentration at which cell migration was completely impaired: 20 mM calcium medium (FIG. 3). From the text: The ability of 1,2,3-triazole derivatives according to the disclosure to inhibit cancer cell migration and proliferation in vitro can be measured, e.g., by a wound healing assay (Rodriguez et al., in Cell Migration: Developmental Methods and Protocols, Web et al., Guan ed. Humana Press 294, 23-29). This assay is based on the observation that, upon the creation of an artificial gap on a confluent cancer cell monolayer, the cells on the edge of the created gap will start migrating and proliferating until new cell-cell contacts are established (EXAMPLE 3).
Non-Small Lung Cancer Cells (NSLCs) migration rate was assessed in an in vitro wound healing assay. This assay is based on the observation that, upon the creation of an artificial gap on a confluent cell monolayer, the cells on the edge of the created gap will start migrating and proliferating until new cell-cell contacts are established.
A confluent cell layer is a prerequisite for starting this assay. Gap formation is done manually with a scrapper and cell proliferation and migration is determined recording a time-lapse video for 20 hr. with a time interval of 30 min. The microscopic pictures are manually analyzed for obtaining information about the proliferation and migration characteristics of the cultured cells and the image analysis detects the cell covered area.
NSLCs were cultured in Eagle's Minimum Essential Medium (ATCC-formulated medium, Catalog No. 30-2003) containing fetal bovine serum at 10% during several periods. Wound healing assays with supplemented medium containing 1,2,3-triazole derivatives were performed to evaluate the inhibitory effect on proliferation and migration of cancer cells.
In order to simulate as close as possible the in vivo cancer microenvironment, human plasma and calcium were added to the cell culture system to provide the hemostatic factors normally present in the cancer stroma. The previous day, cells were seeded with 10% FBS at a number that would provide 90% confluence the next day. On Day 0, a scratch (“a wound”) was performed in the middle of the well and the 10% FBS medium was replaced with 20% plasma, 20 mM calcium medium, with or without Derivative 1. 10% FBS medium was used as control in these experiments. “Wound healing” or closure of the scratch was assessed over a period of 4 days, and cell number in the wound area was quantified for each condition. Increasing amount of Derivative 1 (LTI6) was used to attain a dose-response curve.
The cell function effect of Derivative 1 was compared with Tranexamic Acid (TNA) and Caproic Acid (CA), commercially available and widely used anti-metastasis drugs.

The test system is the same in assay [3]. In words: Trypan Blue Exclusion Test of cancer cell viability. The format is cell-based. Conditions: defined in text as concentration of derivative causing greater than 90% of the cells to die, read-out: Anti-Cancer Activity (Trypan Blue Exclusion Assay) IC50. As to the method:
The ability of 1,2,3-triazole derivatives according to the disclosure to kill cancer cells can be measured, e.g., by Trypan Blue Exclusion Assay which measured cell death by starvation due to the presence of the derivative (see EXAMPLE 4). The results obtained using this assay with some representative 1,2,3-triazole derivatives according to the disclosure are shown below in Table 4.
The effect of Derivative 1 on cancer cell viability was determined using the Trypan Blue Exclusion Test (Stober (2001) (Curr. Protoc. Immunol., May; Appendix 3:Appendix 3B. doi: 10.1002/0471142735.ima03bs21). The viability of Non-Small Lung Cancer Cells (NSLCs) was assessed over a period of 15 days after the promotion of coagulation with or without 200 μM of 1,2,3-triazole derivative 1 and with or without 2% human plasma. Fresh 2% FBS medium corresponding to each condition was added every 3 days. Cell death was analyzed using Trypan blue staining. 2% FBS medium was used as control. Some representative results are shown in FIGS. 4A-4F.

[4] abbreviates: wound healing assay, dose-response curve, read-out: Anti-Cancer Activity (Inhibition of Cancer Cell Migration) IC50.

Where two headings read alike, the source gives them in different places.

Data on 28 molecules can be found in patent US20210317113A1, “1,2,3-TRIAZOLE DERIVATIVES AND USES THEREOF” (Alxerion Biotech LLC, priority 2020, published 2021).

`NCCn1cc(-c2noc(=O)[nH]2)nn1` [Derivative 20]: the IC50 was 15 µM in assay [1], 87 µM in assay [2] (setting [4]) and 210 µM in assay [3].
For `O=C(O)c1nnc(-c2cn(C3CCNCC3)nn2)o1` [Derivative 21], the IC50 amounted to 35 µM in assay [1], 100 µM in assay [2] (setting [4]) and 150 µM in assay [3].
In the case of `N=C(N)c1cn(CCN)nn1` [Derivative 36], the IC50 in assay [1] is 119 µM; in assay [2] (setting [4]), 278 µM; in assay [3], 415 µM.
Take `N=C(N)c1cn(CCCN)nn1` [Derivative 34]: the results for the IC50 in assay [1], in assay [2] (setting [4]) and in assay [3] were 101 µM, 220 µM and 350 µM, respectively.
As for `NNC(=O)c1cn(C2CCC(N)CC2)nn1` (stereo not drawn) [Derivative 16], the IC50 in assay [1] amounted to 58 µM; in assay [2] (setting [4]), 250 µM; in assay [3] it was 430 µM.
For `NCCCn1ccnn1` [Derivative 14], the IC50 in assay [1] was found to be 130 µM; in assay [2] (setting [4]) it was 250 µM; in assay [3], 450 µM.
Take `N/C(=N\O)c1cn(C2CCC(N)CC2)nn1` (stereo not drawn) [Derivative 25]: the IC50 in assay [1] came out at 205 µM; in assay [2] (setting [4]), 420 µM; in assay [3], 610 µM.
In the case of `NC1CCC(n2cc(-c3n[nH]c(=O)o3)nn2)CC1` (stereo not drawn) [Derivative 17], the IC50 in assay [1] amounted to 320 µM; in assay [2] (setting [4]), 650 µM; in assay [3] it was 1350 µM.
For the molecule `NC1CCC(n2cc(C(=O)O)nn2)CC1` (stereo not drawn) [Derivative 29], the IC50 in assay [1] was determined as 67 µM; in assay [2] (setting [4]), 129 µM; in assay [3], 218 µM.
For `CCCCCC(=O)O` [CA, Caproic Acid, reference compound], in assay [2] (96 h, read-out: IC50 from dose response curve, cell migration), the IC50 worked out at 1340 µM. Further, the “concentration at which cell migration was completely impaired” value in assay [2] (NSLCs, 20% plasma) is 1400 µM.
Take `N=C(N)c1cn(C2CCNCC2)nn1` [Derivative 33]: the IC50 in assay [1] was 29 µM; in assay [2] (setting [4]), 82 µM; in assay [3] it was 184 µM.
Take `NC1CCC(n2cc(-c3nnc(C(=O)O)o3)nn2)CC1` (stereo not drawn) [Derivative 23]: the values for the IC50 in assay [1], in assay [2] (setting [4]) and in assay [3] were 35 µM, 89 µM and 210 µM, respectively.
`NNC(=O)c1cn(C2CCNCC2)nn1` [Derivative 3]: the IC50 in assay [1] was determined as 180 µM; in assay [2] (setting [4]) it was 230 µM; in assay [3], 410 µM.
Turning to `NCCCn1cc(/C(N)=N/O)nn1` [Derivative 8], the IC50 in assay [1] was found to be 350 µM; in assay [2] (setting [4]), 500 µM; in assay [3], 750 µM.
As for `NCCn1cc(C(=O)O)nn1` [Derivative 30], the IC50 worked out at 370 µM in assay [1], 520 µM in assay [2] (setting [4]) and 710 µM in assay [3].
The matching figures for `NCCn1cc(C/C(N)=N\O)nn1` [Derivative 28]: 23 µM, 69 µM and 140 µM.
With `N/C(Cc1cn(C2CCC(N)CC2)nn1)=N/O` (stereo not drawn) [Derivative 27], the IC50 turned out to be 189 µM in assay [1], 310 µM in assay [2] (setting [4]) and 480 µM in assay [3].
With `N=C(N)c1cn(C2CCC(N)CC2)nn1` (stereo not drawn) [Derivative 35], the IC50 in assay [1] came to 290 µM; in assay [2] (setting [4]), 450 µM; in assay [3] it was 670 µM.
On to `O=c1[nH]c(-c2cn(C3CCNCC3)nn2)no1` [Derivative 5], for which the IC50 in assay [1] (listed as 5) turned out to be 35 µM; in assay [2] (wound healing assay, dose-response curve, listed as 5, read-out: Anti-Cancer Activity (Inhibition of Cancer Cell Migration) IC50) it was 90 µM; in assay [3] (listed as 5), 150 µM. Moreover, in assay [1], the “inhibition of fibrinolysis mediated by tPA (in words)” value is reported as “completely inhibit fibrinolysis”.
On to `NC1CCC(n2ccnn2)CC1` (stereo not drawn) [Derivative 31], for which the IC50 came to 74 µM in assay [1], 190 µM in assay [2] (setting [4]) and 310 µM in assay [3].
On to `NC[C@H]1CC[C@H](C(=O)O)CC1` [TNA, Tranexamic Acid, reference compound], for which, in assay [2] (96 h, NSLCs, 20% plasma, 20 mM calcium medium, wound closure over 4 days (FIG. 3), read-out: IC50 from dose response curve, cell migration), the IC50 turned out to be 438 µM. For the same molecule, in assay [2] (NSLCs, 20% plasma), the “concentration at which cell migration was completely impaired” value was determined as 250 µM.
Turning to `NCCn1cc(/C(N)=N/O)nn1` [Derivative 26], the IC50 in assay [1] came out at 153 µM; in assay [2] (setting [4]) it was 258 µM; in assay [3], 470 µM.
Take `N/C(Cc1cn(C2CCNCC2)nn1)=N/O` [Derivative 10]: the IC50 in assay [1] stood at 150 µM; in assay [2] (setting [4]), 250 µM; in assay [3] it was 370 µM.
On to `NC(NO)c1cn(C2CCNCC2)nn1` (stereo not drawn) [Derivative 7], for which the IC50 in assay [1] was determined as 125 µM; in assay [2] (setting [4]), 270 µM; in assay [3] it was 415 µM. The “inhibition of fibrinolysis mediated by tPA (in words)” value in assay [1] is recorded as “completely inhibit fibrinolysis”.
Take `NCCn1cc(-c2nnc(C(=O)O)o2)nn1` [Derivative 24]: the IC50 is 315 µM in assay [1], 620 µM in assay [2] (setting [4]) and 810 µM in assay [3].
The matching figures for `NCCCn1cc(C(=O)O)nn1` [Derivative 13]: 75 µM, 125 µM and 170 µM.
With `O=c1[nH]nc(-c2cn(C3CCNCC3)nn2)o1` [compound 12, 5-(1-(piperidin-4-yl)-1H-1,2,3-triazol-4-yl)-1,3,4-oxadiazol-2(3H)-one], the IC50 in assay [1] was found to be 25 µM; in assay [2] (setting [4]), 65 µM; in assay [3], 110 µM.
As to `NCCCn1cc(-c2noc(=O)[nH]2)nn1` [Derivative 6], the IC50 in assay [1] amounted to 375 µM; in assay [2] (setting [4]), 650 µM; in assay [3] it was 800 µM.
